Measured values from article PMC4427575, “Functional screening system for yeast-secreted peptides acting on G-protein coupled receptors” (AMB Express, 2015).

Test system: class A GPCR SST receptor
Experiment: Effect of FLAG fusion on somatostatin (data not shown)
Conditions: result in words

Substance: somatostatin with FLAG fusion: FLAG fusion of somatostatin, endogenous circular peptide agonist acting on class A GPCR SST receptor
- effect of the FLAG fusion: beneficial effect
